Measured values from ChEMBL document CHEMBL3885861, “Open TG-GATES”.

Organism: Rattus norvegicus
Assay: Open TG-GATES - Regimen: Single
Assay type: toxicity, organism-based, Sprague-Dawley
Set-up: regimen Single, gender Male, age 6 weeks
Details: in vivo, po, 0 mg/kg, route gavage, dose level Control; for APTT / Bas / Eos / Fbg / Hb / Ht / Lym / MCH / MCHC / MCV / Mono / Neu / PT / Plat / RBC / Ret / WBC: tissue Blood; for KIDNEY_L / KIDNEY_R / KIDNEY_TOTAL: tissue Kidney; for LIVER: tissue Liver; for A/G / ALP / ALT / AST / BUN / CRE / Ca / Cl / DBIL / GLC / IP / K / LDH / Na / PL / RALB / TBIL / TC / TG / TP / gamma-GTP: tissue Plasma

SMILES: O=C(OC[C@H]1O[C@@H](OC(=O)c2cc(O)c(O)c(OC(=O)c3cc(O)c(O)c(O)c3)c2)[C@H](OC(=O)c2cc(O)c(O)c(OC(=O)c3cc(O)c(O)c(O)c3)c2)[C@@H](OC(=O)c2cc(O)c(O)c(OC(=O)c3cc(O)c(O)c(O)c3)c2)[C@@H]1OC(=O)c1cc(O)c(O)c(OC(=O)c2cc(O)c(O)c(O)c2)c1)c1cc(O)c(O)c(OC(=O)c2cc(O)c(O)c(O)c2)c1 [TANNIC ACID]
- TERMINAL_BW (3 h): 189.9 g
- APTT (3 h): 16.1 s
- Bas (3 h): 0%
- Eos (3 h): 0.6%
- Fbg (3 h): 216.2 mg/dL
- Hb (3 h): 12.9 g/dL
- Ht (3 h): 38.5%
- Lym (3 h): 79.4%
- MCH (3 h): 22.6 pg
- MCHC (3 h): 33.6%
- MCV (3 h): 67.3 fL
- Mono (3 h): 5%
- Neu (3 h): 15.2%
- PT (3 h): 11.7 s
- Plat (3 h): 106.7 x10_4/uL
- RBC (3 h): 573 x10_4/ul
- Ret (3 h): 10.3%
- WBC (3 h): 111 x10_2/uL
- KIDNEY_L (3 h): 0.9 g
- KIDNEY_R (3 h): 0.9 g
- KIDNEY_TOTAL (3 h): 1.8 g
- LIVER (3 h): 9.5 g
- A/G (3 h): 2.1
- ALP (3 h): 747.6 IU/L
- ALT (3 h): 34.4 IU/L
- AST (3 h): 68 IU/L
- BUN (3 h): 17 mg/dL
- CRE (3 h): 0.4 mg/dL
- Ca (3 h): 11 mg/dL
- Cl (3 h): 103.2 meq/L
- DBIL (3 h): 0.016 mg/dL
- GLC (3 h): 194.4 mg/dL
- IP (3 h): 10.3 mg/dL
- K (3 h): 4.8 meq/L
- LDH (3 h): 74.4 IU/L
- Na (3 h): 139.4 meq/L
- PL (3 h): 141.4 mg/dL
- RALB (3 h): 3.6 g/dL
- TBIL (3 h): 0.5 mg/dL
- TC (3 h): 74.8 mg/dL
- TG (3 h): 70.6 mg/dL
- TP (3 h): 5.4 g/dL
- gamma-GTP (3 h): 1.4 IU/L
- TERMINAL_BW (6 h): 186.3 g
- APTT (6 h): 15.9 s
- Bas (6 h): 0%
- Eos (6 h): 0.8%
- Fbg (6 h): 227 mg/dL
- Hb (6 h): 13.1 g/dL
- Ht (6 h): 39.1%
- Lym (6 h): 75.2%
- MCH (6 h): 22.1 pg
- MCHC (6 h): 33.6%
- MCV (6 h): 65.6 fL
- Mono (6 h): 7.8%
- Neu (6 h): 16.4%
- PT (6 h): 12.1 s
- Plat (6 h): 117.4 x10_4/uL
- RBC (6 h): 596 x10_4/ul
- Ret (6 h): 10.1%
- WBC (6 h): 109.6 x10_2/uL
- KIDNEY_L (6 h): 0.9 g
- KIDNEY_R (6 h): 0.9 g
- KIDNEY_TOTAL (6 h): 1.8 g
- LIVER (6 h): 8.6 g
- A/G (6 h): 2
- ALP (6 h): 831.4 IU/L
- ALT (6 h): 34.4 IU/L
- AST (6 h): 61.8 IU/L
- BUN (6 h): 11.2 mg/dL
- CRE (6 h): 0.5 mg/dL
- Ca (6 h): 10.8 mg/dL
- Cl (6 h): 105.2 meq/L
- DBIL (6 h): 0.028 mg/dL
- GLC (6 h): 188 mg/dL
- IP (6 h): 10.1 mg/dL
- K (6 h): 4.7 meq/L
- LDH (6 h): 83 IU/L
- Na (6 h): 139.4 meq/L
- PL (6 h): 131.8 mg/dL
- RALB (6 h): 3.6 g/dL
- TBIL (6 h): 0.4 mg/dL
- TC (6 h): 79.2 mg/dL
- TG (6 h): 40.6 mg/dL
- TP (6 h): 5.4 g/dL
- gamma-GTP (6 h): 2.2 IU/L
- TERMINAL_BW (9 h): 184.6 g
- APTT (9 h): 16.7 s
- Bas (9 h): 0%
- Eos (9 h): 1.2%
- Fbg (9 h): 213 mg/dL
- Hb (9 h): 12.9 g/dL
- Ht (9 h): 38.4%
- Lym (9 h): 76.8%
- MCH (9 h): 22.2 pg
- MCHC (9 h): 33.6%
- MCV (9 h): 65.9 fL
- Mono (9 h): 8%
- Neu (9 h): 14.4%
- PT (9 h): 12.1 s
- Plat (9 h): 123.3 x10_4/uL
- RBC (9 h): 583.4 x10_4/ul
- Ret (9 h): 10.2%
- WBC (9 h): 92.1 x10_2/uL
- KIDNEY_L (9 h): 0.9 g
- KIDNEY_R (9 h): 0.9 g
- KIDNEY_TOTAL (9 h): 1.7 g
- LIVER (9 h): 7.7 g
- A/G (9 h): 1.9
- ALP (9 h): 669.8 IU/L
- ALT (9 h): 34.4 IU/L
- AST (9 h): 60 IU/L
- BUN (9 h): 12.8 mg/dL
- CRE (9 h): 0.4 mg/dL
- Ca (9 h): 10.5 mg/dL
- Cl (9 h): 105.4 meq/L
- DBIL (9 h): 0.062 mg/dL
- GLC (9 h): 195.8 mg/dL
- IP (9 h): 10.8 mg/dL
- K (9 h): 4.9 meq/L
- LDH (9 h): 72.2 IU/L
- Na (9 h): 137 meq/L
- PL (9 h): 138.6 mg/dL
- RALB (9 h): 3.6 g/dL
- TBIL (9 h): 0.4 mg/dL
- TC (9 h): 81.4 mg/dL
- TG (9 h): 35.2 mg/dL
- TP (9 h): 5.5 g/dL
- gamma-GTP (9 h): 2.6 IU/L
- TERMINAL_BW (24 h): 197.9 g
- APTT (24 h): 16.7 s
- Bas (24 h): 0%
- Eos (24 h): 1.2%
- Fbg (24 h): 218.4 mg/dL
- Hb (24 h): 12.5 g/dL
- Ht (24 h): 37.6%
- Lym (24 h): 79.6%
- MCH (24 h): 22 pg
- MCHC (24 h): 33.3%
- MCV (24 h): 66.1 fL
- Mono (24 h): 6%
- Neu (24 h): 13.6%
- PT (24 h): 11.8 s
- Plat (24 h): 110.9 x10_4/uL
- RBC (24 h): 568.6 x10_4/ul
- Ret (24 h): 9.9%
- WBC (24 h): 98.7 x10_2/uL
- KIDNEY_L (24 h): 0.9 g
- KIDNEY_R (24 h): 0.9 g
- KIDNEY_TOTAL (24 h): 1.8 g
- LIVER (24 h): 9.4 g
- A/G (24 h): 2.1
- ALP (24 h): 821.8 IU/L
- ALT (24 h): 41 IU/L
- AST (24 h): 66.6 IU/L
- BUN (24 h): 18.2 mg/dL
- CRE (24 h): 0.5 mg/dL
- Ca (24 h): 10.8 mg/dL
- Cl (24 h): 103.8 meq/L
- DBIL (24 h): 0.004 mg/dL
- GLC (24 h): 190.6 mg/dL
- IP (24 h): 8.7 mg/dL
- K (24 h): 4.7 meq/L
- LDH (24 h): 97 IU/L
- Na (24 h): 138.2 meq/L
- PL (24 h): 144.2 mg/dL
- RALB (24 h): 3.7 g/dL
- TBIL (24 h): 0.4 mg/dL
- TC (24 h): 80.6 mg/dL
- TG (24 h): 77.2 mg/dL
- TP (24 h): 5.5 g/dL
- gamma-GTP (24 h): 1.4 IU/L
